Source: patent publication US20250176550A1, “HERBICIDE COMPOSITION OF URACIL COMPOUND CONTAINING CARBOXYLATE FRAGMENT AND THE USE THEREOF” (Jiangsu Flag Chemical Industry Co., Ltd., priority 2022, published 2025)
Where two headings read alike, the source gives them in different places.

Columns and labels:
Test in all cases: Indoor virulence and combined effect, greenhouse pot test, post-emergence stem and leaf spray, fresh weight inhibition
Assay type in all cases: in vivo
veronica persica = system: veronica persica
Procedure: (§1) The active ingredients A and B are respectively screened and an indoor combined effect of the composition on weeds was evaluated by an indoor test and a field test, to determine a combined effect of the composition on weeds.
(§2) Quantitative seeds of Poaceae weeds (echinochloa crusgalli, Digitaria sanguinalis, setaria viridis, Eleusine indica, avena fatua, alopecurus japonicus, alopecurus aequalis, Lolium multiflorum) and broadleaf weeds (eclipta prostrata, rorippa dubia, Abutilon theophrasti, conyza canadensis, veronica persica, myosoton aquaticum, polygonum lapathifolium, galium aparine var. tenerum, alisma plantago-aquatica, geranium carolinianum) were sown in paper cup containing nutrient soil with a diameter of 7 cm, covered with soil for 1 cm after sowing. After pressing and watering, they were cultured in a greenhouse according to a conventional method. Poaceae weeds grew to 3˜4 leaf stage, broad-leaved weeds grew to 4˜6 leaf stage, spraying treatment to both stem and leaf was performed; and pre-seedling soil spray treatment was performed 24 hours after sowing. Following an experimental design dosage, a WP-2000 walking spray tower (spindle speed 96 mm/r, spray height 200 mm, effective spray amplitude of nozzle 350 mm, nozzle flow rate 390 mL/min, nozzle walking speed 210 mm/s) was used for the spray treatment. The experiment was repeated three times. After being treated, a sample material is placed in an operation hall, and after the drug solution is naturally dried out, the sample material is placed in a greenhouse and managed according to the conventional method. A reaction of weeds to the drug agent is observed and recorded, and a regularly visual check of a control effect of the drug agent on weeds was performed after the treatment.
(§3) All of original drugs were using acetone as a solvent, being diluted with 0.1 wt % emulsifier of Tween-80 aqueous solution, and being diluted right before using.
(§4) When determining a ratio or content of the active ingredient A and the active ingredient B, it should be measured from characteristics of action of both agents and virulence thereof, as well as the main purpose of use of a formula shall also be considered in. In the present study, on a basis of previous pre-test, the dosages of the active ingredient A and the active ingredient B were set, when being used alone and mixed, as shown in the following table. Water containing no agent, but containing the same solvent and emulsifier was used as a blank control.
(§5) Repeat 4 times for each treatment, 3 pots per treatment each time and 30 weed seeds were sown for each pot.
(§6) Adopting an absolute number survey method, using a blade to cut the whole seedling of surviving weed along soil surface, and weighting the fresh weight of the weed with an analytical balance. For weeds that had died, counting the fresh weight as zero.
(§7) Survey period and frequency: 21 days after the treatment, total 1 investigation.
(§8) The theoretical fresh weight inhibition rate (E0-Expected Efficacy=[…]) of each treatment combination was calculated by Gowing method, and then compared with the measured inhibition rate (E-Observed Efficacy) to evaluate the combined effect type of both on weeds. When E-E0 value was greater than 10%, it was counted as a synergistic effect, less than −10%, it was counted as an antagonistic effect, and between −10%˜10%, it was counted as an additive effect. According to a plurality of factors including an actual control efficacy, a herbicide characteristic, a formula balance and other factors to determine the best ratio. In the formula, X is the fresh weight inhibition rate of the ingredient A at a dosage of P; Y is the fresh weight inhibition rate of the active ingredient B at a dosage of Q.
(§9) The statistical results are shown in Table 1 to Table 44 below, except for those marked clearly as “pre-emergence treatment”, all others are “post-emergence treatment”. […]

lolium multiflorum = system: lolium multiflorum
Procedure: as §1, §2, §3, §4, §5, §6, §7, §8, §9

eclipta prostrata = system: eclipta prostrata
Procedure: as §1, §2, §3, §4, §5, §6, §7, §8, §9

echinochloa crusgalli = settings: for Fresh weight inhibition rate %, B single agent: Table 44; for inhibition at 5 g/ha: 5 g a.i./ha; for inhibition at 10 g/ha: 10 g a.i./ha
Procedure: as §1
as §2, with “Following an experimental design dosage, a WP-2000 walking spray tower (spindle speed 96 mm/r, spray height 200 mm, effective spray amplitude of nozzle 350 mm, nozzle flow rate 390 mL/min, nozzle walking speed 210 mm/s) was used for the spray treatment.” left out, “method.” for “method. A reaction of weeds to the drug agent is observed and recorded, and a regularly visual check of a control effect of the drug agent on weeds was performed after the treatment.”
as §3, §4, §5, §6, §7
When E-E0 value was greater than 10%, it was counted as a synergistic effect, less than −10%, it was counted as an antagonistic effect, and between −10%˜10%, it was counted as an additive effect. […] In the formula, X is the fresh weight inhibition rate of the ingredient A at a dosage of P; Y is the fresh weight inhibition rate of the active ingredient B at a dosage of Q.

[1] = Echinochloa crus-galli, 504 h, Table 2, post-emergence, 21 days after treatment, read-out: Fresh weight inhibition rate %, B single agent
[2] = Echinochloa crus-galli, 504 h, Table 4, post-emergence, 21 days after treatment, read-out: Fresh weight inhibition rate %, B single agent

In the case of `CNC.COc1c(Cl)ccc(Cl)c1C(=O)O` [dicamba-dimethylammonium], the “Fresh weight inhibition rate %, B single agent” value (from here on “Fresh weight inhibition rate %”) (veronica persica; Table 24, B 40 g a.i./ha) is reported as 11.68%, the “Fresh weight inhibition rate %” value (veronica persica; Table 24, B 60 g a.i./ha) is reported as 25.89% and the “Fresh weight inhibition rate %” value (veronica persica; Table 24, B 80 g a.i./ha) is reported as 37.82%. For the same molecule, the “Fresh weight inhibition rate %” value (veronica persica; Table 24, B 100 g a.i./ha) was 38.58%.

With `Nc1c(Cl)c(Cl)nc(C(=O)O)c1Cl` [picloram-potassium, picloram] the “Fresh weight inhibition rate %” value (veronica persica; Table 26, B 450 g a.i./ha) was 42.89%, the “Fresh weight inhibition rate %” value (veronica persica; Table 26, B 525 g a.i./ha) was 47.46% and the “Fresh weight inhibition rate %” value (veronica persica; Table 26, B 600 g a.i./ha) was 50.25%. For the same molecule, the “Fresh weight inhibition rate %” value (veronica persica; Table 26, B 600 g a.i./ha (row 2 + 600)) was 50.25%.

`C=CCOC(=O)C(C)(C)OC(=O)c1cc(-n2c(=O)cc(C(F)(F)F)n(C)c2=O)ccc1Cl` [butafenacil] was tested, and the “Fresh weight inhibition rate %” value (lolium multiflorum; Table 34, B 7.5 g a.i./ha) was 29.47%, the “Fresh weight inhibition rate %” value (lolium multiflorum; Table 34, B 12.5 g a.i./ha) was 36.55% and the “Fresh weight inhibition rate %” value (lolium multiflorum; Table 34, B 20 g a.i./ha) was 43.60%. For the same molecule, the “Fresh weight inhibition rate %” value (lolium multiflorum; Table 34, B 30 g a.i./ha) was 53.40%.

In the case of `Cc1cc(Cl)ccc1OCC(=O)[O-].[Na+]` [MCPA-sodium], the “Fresh weight inhibition rate %” value (eclipta prostrata; Table 43, B 80 g a.i./ha) is reported as 37.73% and the “Fresh weight inhibition rate %” value (eclipta prostrata; Table 43, B 160 g a.i./ha) is reported as 45.00%.

In the case of `CCOC(=O)COC(=O)c1cc(Oc2ccc(C(F)(F)F)cc2Cl)ccc1[N+](=O)[O-]` [fluoroglycofen-ethyl], the “Fresh weight inhibition rate %” value (eclipta prostrata; Table 12, B 8 g a.i./ha) is reported as 11.99%, the “Fresh weight inhibition rate %” value (eclipta prostrata; Table 12, B 16 g a.i./ha) is reported as 27.44% and the “Fresh weight inhibition rate %” value (eclipta prostrata; Table 12, B 20 g a.i./ha) is reported as 42.03%.

For `COC(=O)CCNC(=O)C(C)Sc1cc(-n2c(=O)cc(C(F)(F)F)n(C)c2=O)c(F)cc1Cl` (stereo not drawn) [tiafenacil], the “Fresh weight inhibition rate %” value (lolium multiflorum; Table 38, B 10 g a.i./ha) was 8.27%, the “Fresh weight inhibition rate %” value (lolium multiflorum; Table 38, B 15 g a.i./ha) was 15.26% and the “Fresh weight inhibition rate %” value (lolium multiflorum; Table 38, B 20 g a.i./ha) was 22.42%.

With `c1cc[n+]2c(c1)-c1cccc[n+]1CC2` [diquat] the “Fresh weight inhibition rate %” value (lolium multiflorum; Table 27, B 300 g a.i./ha) was 31.27%, the “Fresh weight inhibition rate %” value (lolium multiflorum; Table 27, B 400 g a.i./ha) was 36.44% and the “Fresh weight inhibition rate %” value (lolium multiflorum; Table 27, B 495 g a.i./ha) was 41.37%.

In the case of `CCCCC(CC)COC(=O)COc1ccc(Cl)cc1Cl` [2,4-D-etexyl], the “Fresh weight inhibition rate %” value (veronica persica; Table 23, B 195 g a.i./ha) is reported as 30.42%, the “Fresh weight inhibition rate %” value (veronica persica; Table 23, B 275 g a.i./ha) is reported as 40.62% and the “Fresh weight inhibition rate %” value (veronica persica; Table 23, B 350 g a.i./ha) is reported as 50.28%.

`CC1(C)CON(Cc2ccccc2Cl)C1=O` [clomazone] showed an inhibition at 12.5 g/ha (echinochloa crusgalli; Echinochloa crus-galli, 504 h, Table 17, 12.5 g a.i./ha, post-emergence, 21 days after treatment, read-out: Fresh weight inhibition rate %, B single agent) of 8.42%, an inhibition at 20 g/ha (echinochloa crusgalli; Echinochloa crus-galli, 504 h, Table 17, 20 g a.i./ha, post-emergence, 21 days after treatment, read-out: Fresh weight inhibition rate %, B single agent) of 7.51% and an inhibition at 45 g/ha (echinochloa crusgalli; Echinochloa crus-galli, 504 h, Table 17, 45 g a.i./ha, post-emergence, 21 days after treatment, read-out: Fresh weight inhibition rate %, B single agent) of 10.9%.

broclozone was tested, and the “Fresh weight inhibition rate %” value (echinochloa crusgalli; B 50 g a.i./ha) was 5.86%, the “Fresh weight inhibition rate %” value (echinochloa crusgalli; B 80 g a.i./ha) was 16.30% and the “Fresh weight inhibition rate %” value (echinochloa crusgalli; B 120 g a.i./ha) was 33.00%. The “Fresh weight inhibition rate %” value (echinochloa crusgalli; B 150 g a.i./ha) was 44.95%.

Work on `COc1cnc(OC)n2nc(NS(=O)(=O)c3c(OCC(F)F)cccc3C(F)(F)F)nc12` [penoxsulam] yielded an inhibition at 5 g/ha (echinochloa crusgalli; [1]) of 7.31% and an inhibition at 10 g/ha (echinochloa crusgalli; [1]) of 18.3%.

In the case of `CP(=O)(O)CC[C@H](N)C(=O)O.N` [glufosinate-P-ammonium], the “Fresh weight inhibition rate %” value (lolium multiflorum; Table 20, B 200 g a.i./ha) is reported as 8.61%, the “Fresh weight inhibition rate %” value (lolium multiflorum; Table 20, B 300 g a.i./ha) is reported as 74.40% and the “Fresh weight inhibition rate %” value (lolium multiflorum; Table 20, B 350 g a.i./ha) is reported as 78.23%. The “Fresh weight inhibition rate %” value (lolium multiflorum; Table 20, B 400 g a.i./ha) was 83.04%.

`C#CCN1C(=O)COc2cc(F)c(N3C(=O)C4=C(CCCC4)C3=O)cc21` [flumioxazin] was tested, and the “Fresh weight inhibition rate %” value (eclipta prostrata; Table 11, B 8 g a.i./ha) was 24.97%, the “Fresh weight inhibition rate %” value (eclipta prostrata; Table 11, B 16 g a.i./ha) was 39.68% and the “Fresh weight inhibition rate %” value (eclipta prostrata; Table 11, B 20 g a.i./ha) was 45.24%. For the same molecule, the “Fresh weight inhibition rate %” value (eclipta prostrata; Table 11, B 30 g a.i./ha) was 54.24%.

In the case of `CCCCCCC(C)OC(=O)COc1nc(F)c(Cl)c(N)c1Cl` (stereo not drawn) [fluroxypyr-meptyl], the “Fresh weight inhibition rate %” value (eclipta prostrata; Table 42, B 32 g a.i./ha) is reported as 30.91%, the “Fresh weight inhibition rate %” value (eclipta prostrata; Table 42, B 40 g a.i./ha) is reported as 34.55% and the “Fresh weight inhibition rate %” value (eclipta prostrata; Table 42, B 60 g a.i./ha) is reported as 39.55%. For the same molecule, the “Fresh weight inhibition rate %” value (eclipta prostrata; Table 42, B 80 g a.i./ha) was 73.18%.

In the case of `CC(C)N1C(=O)c2ccccc2NS1(=O)=O` [bentazone-sodium], the inhibition at 300 g/ha (veronica persica; Veronica persica, 504 h, Table 9, 300 g a.i./ha, post-emergence, 21 days after treatment, read-out: Fresh weight inhibition rate %, B single agent) is reported as 30.5%, the inhibition at 450 g/ha (veronica persica; Veronica persica, 504 h, Table 9, 450 g a.i./ha, post-emergence, 21 days after treatment, read-out: Fresh weight inhibition rate %, B single agent) is reported as 41.9% and the inhibition at 525 g/ha (veronica persica; Veronica persica, 504 h, Table 9, 525 g a.i./ha, post-emergence, 21 days after treatment, read-out: Fresh weight inhibition rate %, B single agent) is reported as 53.3%.

Molecule `COc1cc(OC)nc(Oc2cccc(Oc3nc(OC)cc(OC)n3)c2C(=O)O)n1` [bispyribac-sodium] has an inhibition at 5 g/ha (echinochloa crusgalli; [2]) of 14.3%, an inhibition at 10 g/ha (echinochloa crusgalli; [2]) of 21.9% and an inhibition at 25 g/ha (echinochloa crusgalli; Echinochloa crus-galli, 504 h, Table 4, 25 g a.i./ha, post-emergence, 21 days after treatment, read-out: Fresh weight inhibition rate %, B single agent) of 30.1%.

In the case of `CP(=O)(O)CCC(N)C(=O)O` (stereo not drawn) [glufosinate-ammonium], the “Fresh weight inhibition rate %” value (lolium multiflorum; Table 19, B 120 g a.i./ha) is reported as 2.63%, the “Fresh weight inhibition rate %” value (lolium multiflorum; Table 19, B 210 g a.i./ha) is reported as 12.20% and the “Fresh weight inhibition rate %” value (lolium multiflorum; Table 19, B 300 g a.i./ha) is reported as 27.99%. The “Fresh weight inhibition rate %” value (lolium multiflorum; Table 19, B 400 g a.i./ha) was 54.64%.
